Holding throughout (format): physicochemical
Series [1] can be described thus: Osmolality of aqueous solutions. Particulars: 300mg I/ml.
The nature of series [2]: Viscosity of aqueous solutions. The following applies: 30°C, 300mg I/ml.
A short description of series [3]: Iodine content.

With `COCC(=O)Nc1c(I)c(C(=O)NCC(=O)Nc2c(I)c(C(=O)N(C)CC(O)CO)c(I)c(C(=O)N(C)CC(O)CO)c2I)c(I)c(C(=O)NCC(O)CO)c1I` (stereo not shown) [EXAMPLE 1, N,N'-bis-(2,3-dihydroxypropyl)-N,N'-dimethyl-5-{3-[N-(2,3-dihydroxypropyl)carbamoyl]-5-methoxyacetamido-2,4,6-triiodobenzoylaminoacetamido}-2,4,6-triiodoisophthalamide], in series [1], the “Osmolality mosm/kg at 300mg I/ml” value turned out to be 310 mosm/kg. The “Viscosity mPa s (30°C) at 300mg I/ml” value in series [2] was 7,2 mPa s. Moreover, the “% Iodine” value in series [3] is recorded as 51,6%. As to `CN(CC(O)CO)C(=O)c1c(I)c(NC(=O)CNC(=O)c2c(I)c(NC(=O)CO)c(I)c(C(=O)NCC(O)CO)c2I)c(I)c(C(=O)N(C)CC(O)CO)c1I` (stereo not shown) [EXAMPLE 2, N.N'-bis-(2,3-dihydroxypropyl)-N,N'-dimethyl-5-{3-[N-(2,3-dihydroxypropyl)carbamoyl]-5-hydroxyacetamido-2,4,6-triiodobenzoylaminoacetamido}-2,4,6-triiodoisophthalamide], the “Osmolality mosm/kg at 300mg I/ml” value in series [1] turned out to be 166 mosm/kg. For the same compound, the “Viscosity mPa s (30°C) at 300mg I/ml” value in series [2] was 8,4 mPa s. Also, the “% Iodine” value in series [3] worked out at 52%. Taken in the same sequence, the figures for `CN(C(=O)CNC(=O)c1c(I)c(NC(=O)CO)c(I)c(C(=O)NCC(O)CO)c1I)c1c(I)c(C(=O)NC(CO)C(O)CO)c(I)c(C(=O)NC(CO)C(O)CO)c1I` (stereo not shown) [EXAMPLE 3, N,N'-bis-(1-hydroxymethyl-2,3-dihydroxyprogyl)-5-{3[N-(2,3-dihydroxypropyl)carbamoyl]-5-hydroxyacetamido-2,4,6-triiodobenzoylaminoacetyl-N-methylamino}-2,4,6-triiodoisophthalamide] were 184 mosm/kg, 9,3 mPa s and 50,5%. Taken in the same sequence, the figures for `COCC(=O)Nc1c(I)c(C(=O)NCC(=O)N(C)c2c(I)c(C(=O)NC(CO)C(O)CO)c(I)c(C(=O)NC(CO)C(O)CO)c2I)c(I)c(C(=O)NCC(O)CO)c1I` (stereo not shown) [EXAMPLE 4, N,N'-bis-(1-hydroxymethyl-2,3-dihydroxypropyl)-5-{3-(N-(2,3-dihydroxypropyl)carbamoyl]-5-methoxyacetamido-2,4,6-triiodobenzoylaminoacetyl-N-methylamino}-2,4,6-triiodo isophthalamide] were 289 mosm/kg, 9,4 mPa s and 50%. For `COCC(=O)Nc1c(I)c(C(=O)NCC(=O)Nc2c(I)c(C(=O)N(C)CC(O)CO)c(I)c(C(=O)N(C)CC(O)CO)c2I)c(I)c(C(=O)NC(CO)C(O)CO)c1I` (stereo not shown) [EXAMPLE 5, N,N'-bis-(2,3-dihydroxypropyl)-N,N'-dimethyl-5-{3-[N-(1-hydroxymethyl-2,3-dihydroxypropyl)carbamoyl]-5-methoxyacetamido-2,4,6-triiodobenzoylaminoacetamido}-2,4,6-triiodoisophthalamide], the “Osmolality mosm/kg at 300mg I/ml” value in series [1] came out at 119 mosm/kg. In addition, the “Viscosity mPa s (30°C) at 300mg I/ml” value in series [2] is reported as 10,2 mPa s. For the same compound, the “% Iodine” value in series [3] is 50,5%. As to `COCC(=O)Nc1c(I)c(C(=O)NCC(=O)Nc2c(I)c(C(=O)NCC(O)CO)c(I)c(C(=O)NCC(O)CO)c2I)c(I)c(C(=O)NC(CO)C(O)CO)c1I` (stereo not shown) [EXAMPLE 6, N,N'-bis-(2,3-dihydroxypropyl)-5-{3-[N-(1-hydroxymethyl-2,3-dihydroxypropyl)carbamoyl]-5-methoxyacetamido-2,4,6-triiodobenzoylaminoacetamido}-2,4,6-triiodoisochthalamide], the “Osmolality mosm/kg at 300mg I/ml” value in series [1] came to 116 mosm/kg. For the same compound, the “Viscosity mPa s (30°C) at 300mg I/ml” value in series [2] is 9,5 mPa s. In addition, the “% Iodine” value in series [3] is on record as 51,5%. For `O=C(CN(CCO)C(=O)c1c(I)c(NC(=O)CO)c(I)c(C(=O)NCC(O)CO)c1I)Nc1c(I)c(C(=O)NCCO)c(I)c(C(=O)NCCO)c1I` (stereo not shown) [EXAMPLE 14, N,N'-bis-(2-hydroxyethyl)-5-{3-[N-(2,3-dihydroxypropyl)-carbamoyl]-5-hydroxyacetamido-2,4,6-triiodobenzoyl-N-(2, hydroxyethyl)aminoacetamido}-2,4,6-triiodoisophthalamide], the “% Iodine” value in series [3] is recorded as 53,7%. For the compound `COCC(=O)Nc1c(I)c(C(=O)NCC(O)CO)c(I)c(C(=O)N(CCO)CC(=O)Nc2c(I)c(C(=O)NCCO)c(I)c(C(=O)NCCO)c2I)c1I` (stereo not shown) [EXAMPLE 17, N,N'-bis-(2-hydroxyethyl)-5-{3-[N-(2,3-dihydroxypropyl)carbamoyl]-5-methoxyacetamido-2,4,6-triodobenzoyl-N-(2-hydroxyethyl)aminoacetamido}-2,4,6-triiodoisophthalamide], in series [3], the “% Iodine” value was 53,2%. For `O=C(CO)Nc1c(I)c(C(=O)NCC(=O)Nc2c(I)c(C(=O)NCC(O)CO)c(I)c(C(=O)NCC(O)CO)c2I)c(I)c(C(=O)NCC(O)CO)c1I` (stereo not shown) [EXAMPLE 18], the “% Iodine” value in series [3] is reported as 53,1%.

Turning to `O=C(CO)Nc1c(I)c(C(=O)NCC(=O)Nc2c(I)c(C(=O)NC(CO)C(O)CO)c(I)c(C(=O)NC(CO)C(O)CO)c2I)c(I)c(C(=O)NCC(O)CO)c1I` (stereo not shown) [EXAMPLE 19, N,N'-bis-(1-hydroxymethyl-2,3-dihydroxypropyl)-5-{3-[N-(2,3-dihydroxypropyl)carbamoyl]-5-hydroxyacetamido-2,4,6-triiodobenzoylaminoacetamido}-2,4,6-triiodoisophthalamide], the “% Iodine” value in series [3] stood at 51%.

Consider `COCC(=O)Nc1c(I)c(C(=O)NCC(=O)Nc2c(I)c(C(=O)NC(CO)C(O)CO)c(I)c(C(=O)NC(CO)C(O)CO)c2I)c(I)c(C(=O)NCC(O)CO)c1I` (stereo not shown) [EXAMPLE 20, N,N'-bis-(1-hydroxymethyl-2,3-dihydroxypropyl)-5-{3-[N-(2,3-dihydroxypropyl)carbamoyl]-5-methoxyacetamido-2,4,6-triiodobenzoylaminoacetamido}-2,4,6-triiodoisolphthalamide], for which the “% Iodine” value in series [3] is recorded as 50,5%.

Turning to `COCC(=O)Nc1c(I)c(C(=O)NCC(O)CO)c(I)c(C(=O)N(C)CC(=O)Nc2c(I)c(C(=O)NC(CO)C(O)CO)c(I)c(C(=O)NC(CO)C(O)CO)c2I)c1I` (stereo not shown) [EXAMPLE 21, N,N'-bis-(1-hydroxymethyl-2,3-dihydroxypropyl)-5-{3-[N-(2,3-dihydroxypropyl)carbomoyl]-5-methoxyacetamido-2,4,6-triiodo-benzoyl-N-methylaminoacetamido}-2,4,6-triiodoisophthalamide], the “% Iodine” value in series [3] is 50%.

Take `COCC(=O)Nc1c(I)c(C(=O)NCC(=O)N(C)c2c(I)c(C(=O)N(C)CC(O)CO)c(I)c(C(=O)N(C)CC(O)CO)c2I)c(I)c(C(=O)NCC(O)CO)c1I` (stereo not shown) [EXAMPLE 27, N,N'-bis-(2,3-dihydroxypropyl)-N,N'-dimethyl-5-{3-[N-(2,3-dihydroxypropyl)carbamoyl]-5-methoxyacetamido-2,4,6-triiodobenzoylaminoacetyl-N-methylamino}-2,4,6-triiodo isophthalamide]: the “% Iodine” value in series [3] is reported as 51,1%. In the case of `COCC(=O)Nc1c(I)c(C(=O)NCC(=O)N(C)c2c(I)c(C(=O)NCC(O)CO)c(I)c(C(=O)NCC(O)CO)c2I)c(I)c(C(=O)NCC(O)CO)c1I` (stereo not shown) [EXAMPLE 28, N,N'-bis-(2,3-dihydroxypropyl)-5-{3-[N-(2,3-dihydroxypropyl)carbamoyl]-5-methoxyacetamido-2,4,6-triiodobenzoylaminoacetyl-N-methylamino}-2,4,6-triiodoisophthalamide], the “% Iodine” value in series [3] was 51,6%. For `CN(CC(=O)N(C)c1c(I)c(C(=O)N(CCO)CCO)c(I)c(C(=O)N(CCO)CCO)c1I)C(=O)c1c(I)c(NC(=O)CO)c(I)c(C(=O)NCC(O)CO)c1I` (stereo not shown) [EXAMPLE 29, N,N,N',N'-tetrakis-(2-hydroxyethyl)-5-{3-[N-(2,3-dihydroxypropyl)carbamoyl]-5-hydroxyacetamido-2,4,6-triiodobenzoyl-N-methylaminoacetyl-N-methylamino}-2,4,6-triiodoisophthalamide], the “% Iodine” value in series [3] is recorded as 51,1%. As for `COCC(=O)Nc1c(I)c(C(=O)NCC(O)CO)c(I)c(C(=O)N(C)CC(=O)N(C)c2c(I)c(C(=O)N(CCO)CCO)c(I)c(C(=O)N(CCO)CCO)c2I)c1I` (stereo not shown) [EXAMPLE 30, N,N,N',N', -tetrakis-(2-hydroxyethyl)-5-{3-[N-(2,3-dihydroxypropyl)carbamoyl]-5-methoxyacetamido-2,4,6-triiodobenzoyl-N -methylaminoacetyl-N-methylamino}-2,4,6-triiodo-isophthalamide], in series [3], the “% Iodine” value is given as 50,6%. Regarding `COCC(=O)Nc1c(I)c(C(=O)NCC(=O)Nc2c(I)c(C(=O)N(CCO)CCO)c(I)c(C(=O)N(CCO)CCO)c2I)c(I)c(C(=O)NCC(O)CO)c1I` (stereo not shown) [EXAMPLE 31, N,N,N',N'-tetrakis(2-hydroxyethyl)-5-{3-[N(2,3-dihydroxypropyl)carbamoyl]-5-methoxyacetamido-2,4,6-triiodobenzoylaminoacetamido}-2,4,6-triiodoisophthalamide], the “% Iodine” value in series [3] is reported as 51,6%. Consider `COCC(=O)N(CCO)c1c(I)c(C(=O)NCC(O)CO)c(I)c(C(=O)N(CCO)CC(=O)N(CCO)c2c(I)c(C(=O)NCC(O)CO)c(I)c(C(=O)NCC(O)CO)c2I)c1I` (stereo not shown) [EXAMPLE 33, N,N'-bis-(2,3-dihydroxypropyl)-5-{3-[N-(2,3-dihydroxypropyl)carbamoyl]-5-methoxyacetyl-N-(2-hydroxyethyl)amino-2,4,6-triiodobenzoyl-N-(2-hydroxyethyl)aminoacetyl-N-(2-hydroxyethyl)amino)-2,4,6-triiodoisophthalamide], for which the “% Iodine” value in series [3] was 48,2%. Take `O=C(NCC(=O)N(CCO)c1c(I)c(C(=O)NCC(O)CO)c(I)c(C(=O)NCC(O)CO)c1I)c1c(I)c(C(=O)NCC(O)CO)c(I)c(N(CCO)C(=O)CO)c1I` (stereo not shown) [EXAMPLE 34, N,N'-bis-(2,3-dihydroxypropyl)-5-{3-[N-(2,3-dihydroxypropyl)carbamoyl]-5-hydroxyacetyl-N-(2-hydroxyethyl)amino-2,4,6-triiodobenzoylaminoacetyl-N-(2-hydroxyethyl)amino}-2,4,6-triiodoisophthalamide]: in series [3], the “% Iodine” value is reported as 50%.
